Experimental data: publication PMC8391127, “Triterpenoid–PEG Ribbons Targeting Selectivity in Pharmacological Effects” (Biomedicines, 2021)
Where two headings read alike, the source gives them in different places.

Key:
Bacillus cereus = assay: Antimicrobial screening, resazurine test; format: cell-based; settings: Bacillus cereus, B. cereus, read-out: Inhibition of the microorganism; for inhibition at 25 µg/mL: c = 25 µg·mL-1
Procedure: (§1) The resazurine test was used to evaluate this activity.
(§2) The cell inoculum was made in Mueller–Hinton broth (10 mL). Colonies of cells were inoculated from the solid medium that was cultivated for 24 h under optimum conditions. A part of the inoculum was diluted to get suspension with an optical density 0.6 to 0.9 McF. An aliquot amount (1 mL) was taken and diluted with additional volume of the medium (19 mL). The stored solutions of the tested compounds were made at a concentration c = 200 µg.mL^−1. The stored suspensions of the cells, MHB medium, solutions of the antibiotics specific for the given bacteria (vancomycin for S. aureus and E. faecalis, kanamycin for E. coli and P. aeruginosa, and tetracycline for B. cereus), and the solutions of the compounds were pipetted into the microtitration plates. Subsequently, a concentration sequence of the tested compounds was made (c = 100, 50, and 25 µg.mL^−1). The content of the microtitration plates was cultivated for 24 h under optimum conditions for the given bacteria. A solution of resazurine was made, based on a dilution of its stored solution (c = 0.15 mg.mL^−1; 2 mL) into the MHB medium (18 mL). Then, it was pipetted into the microtitration plates that were cultivated for an additional 1 h. Finally, fluorescence measurement (excitation at 560 nm, emission at 590 nm) was made, and the inhibition of the bacterium was determined.
(§3) 2. Antimicrobial screening tests
(§4) Antimicrobial activity of the target molecular ribbons 8a, 12a, 8b, 12b, 4c, 6c, 6d and 8d, and […]
(§5) aeruginosa, Staphylococcus aureus and Enterococcus faecalis. The resazurine test was used to […]
(§6) ribbons which have been achieved in this investigation.
(§7) Table S1. Antimicrobial activity, inhibition of the microorganism [%]
(§8) Comp. Staphylococcus aureus Comp. Escherichia coli […]
(§9) µg·mL-1 µg·mL-1 µg·mL-1 µg·mL-1 µg·mL-1 µg·mL-1
(§10) Comp. Bacillus cereus Comp. Pseudomonas aeruginosa

Staphylococcus aureus = assay: Antimicrobial screening, resazurine test; format: cell-based; settings: Staphylococcus aureus, read-out: Inhibition of the microorganism
Procedure: as §1, §2, §3, §4, §5, §6, §7, §8, §9, §10

Escherichia coli = assay: Antimicrobial screening, resazurine test; format: cell-based; settings: Escherichia coli, E. coli, read-out: Inhibition of the microorganism
Procedure: as §1, §2, §3, §4, §5, §6, §7, §8, §9, §10

Enterococcus faecalis = assay: Antimicrobial screening, resazurine test; format: cell-based; settings: Enterococcus faecalis, read-out: Inhibition of the microorganism
Procedure: as §1, §2, §3, §4, §5, §6, §7, §8, §9, §10

Pseudomonas aeruginosa = assay: Antimicrobial screening, resazurine test; format: cell-based; settings: P. aeruginosa
Procedure: as §1, §2, §3, §4, §5, §6, §7, §8, §9, §10

[1] = Self-assembly by UV-VIS spectrometry in methanol/water mixtures; format: physicochemical; settings: 0-140 h
Procedure: The self-assembly of the selected compounds 8a, 12a, 8b, 12b, 4c, 6c, 6d, and 8d was measured using UV absorption in methanol/water mixtures with a constant concentration of the studied compound for 7 days in one-hour intervals on the first day, and in 24 h intervals all following days. The stock solutions of the studied compounds were prepared at a concentration of 1 mg·mL^−1 in water. Then, a series of methanol/water mixtures were prepared starting from a methanol/water ratio 100/0 down to 0/100 in 20% steps. The stock solutions of the studied compounds (0.15 mL) were added separately to each vial containing methanol/water mixtures (3 mL), and the UV spectra were recorded in the wavelength range of 200–400 nm. […] For the compounds 8a, 12a, 12b and 6d, the details are presented in the Supplementary Material; see Figure S2.
Supramolecular self-assembly was studied on the basis of the UV-VIS spectra of the compounds in several methanol/water mixtures stepwise during the time interval 0-140 h. Here we show compounds 8a, 12a, 12b and 6d as examples, with which the irregularities in the UV-VIS spectra were either well pronounced (8a and 12a; Figure S2), or no substantial irregularity was detected (12b and 6d).
Figure S2. UV-VIS spectra of 8a (top) and 12a (bottom) measured in the interval 0-140 h.
During that time interval a new maximum appeared at 300 nm wavelength, and the shape of the curves is different than in any of the other intervals of measurement. […]

Q: What does the source list for `CC1(C)C=C2C3CC[C@@H]4[C@@]5(C)CC[C@H](OCc6cn(CCOCCOCCOCCNC(=O)[C@]78CCC(C)(C)C=C7C7CC[C@@H]9[C@@]%10(C)CC[C@H](O)C(C)(C)[C@@H]%10CC[C@@]9(C)[C@]7(C)CC8)nn6)C(C)(C)[C@@H]5CC[C@@]4(C)[C@]3(C)CC[C@@]2(C(=O)O)CC1` (some centres unmarked) [8b]?
A: inhibition at 25 µg/mL (Bacillus cereus): 16 ± 2.4%; inhibition at 50 µg/mL (Bacillus cereus; c = 50 µg·mL-1): 38 ± 5.7%; inhibition at 100 µg/mL (Bacillus cereus; c = 100 µg·mL-1): 0 to 1%; inhibition at 25 µg/mL (Staphylococcus aureus; S. aureus, c = 25 µg·mL-1): 0 to 1%; inhibition at 50 µg/mL (Staphylococcus aureus; S. aureus, c = 50 µg·mL-1): 24 ± 3.6%; inhibition at 100 µg/mL (Staphylococcus aureus; S. aureus, c = 100 µg·mL-1): 77 ± 11.6%; inhibition at 25 µg/mL (Escherichia coli; c = 25 µg·mL-1): 17 ± 2.6%; inhibition at 50 µg/mL (Escherichia coli; c = 50 µg·mL-1): 25 ± 3.8%; inhibition at 100 µg/mL (Escherichia coli; c = 100 µg·mL-1): 31 ± 4.7%; inhibition at 25 µg/mL (Enterococcus faecalis; E. faecalis, c = 25 µg·mL-1): 20 ± 3%; inhibition at 50 µg/mL (Enterococcus faecalis; E. faecalis, c = 50 µg·mL-1): 43 ± 6.5%; inhibition at 100 µg/mL (Enterococcus faecalis; E. faecalis, c = 100 µg·mL-1): 54 ± 8.1%; inhibition at 25 µg/mL (Pseudomonas aeruginosa; c = 25 µg·mL-1, read-out: Inhibition of the microorganism): 33 ± 5%; inhibition at 50 µg/mL (Pseudomonas aeruginosa; c = 50 µg·mL-1, read-out: Inhibition of the microorganism): 59 ± 8.9%; inhibition at 100 µg/mL (Pseudomonas aeruginosa; c = 100 µg·mL-1, read-out: Inhibition of the microorganism): 60 ± 9%

Q: For `CC1(C)CC[C@]2(C(=O)O)CC[C@]3(C)C(=CC[C@@H]4[C@@]5(C)CC[C@H](OCc6cn(CCOCCOCCOCCNC(=O)[C@]78CCC(C)(C)CC7C7=CC[C@@H]9[C@@]%10(C)CC[C@H](OCc%11cn(CCOCCOCCOCCNC(=O)[C@]%12%13CCC(C)(C)CC%12C%12=CC[C@@H]%14[C@@]%15(C)CC[C@H](O)C(C)(C)[C@@H]%15CC[C@@]%14(C)[C@]%12(C)CC%13)nn%11)C(C)(C)[C@@H]%10CC[C@@]9(C)[C@]7(C)CC8)nn6)C(C)(C)[C@@H]5CC[C@]43C)C2C1` (some centres unmarked) [12a], which “Irregularity in UV-VIS spectra (self-assembly)” value [1] is on record?
A: Irregularities were detected

Q: Which “Irregularity in UV-VIS spectra (self-assembly)” value [1] does the source give for `CC1(C)C=C2C3CC[C@@H]4[C@@]5(C)CC[C@H](OCc6cn(CCOCCOCCOCCNC(=O)[C@]78CCC(C)(C)C=C7C7CC[C@@H]9[C@@]%10(C)CC[C@H](OCc%11cn(CCOCCOCCOCCNC(=O)[C@]%12%13CCC(C)(C)C=C%12C%12CC[C@@H]%14[C@@]%15(C)CC[C@H](O)C(C)(C)[C@@H]%15CC[C@@]%14(C)[C@]%12(C)CC%13)nn%11)C(C)(C)[C@@H]%10CC[C@@]9(C)[C@]7(C)CC8)nn6)C(C)(C)[C@@H]5CC[C@@]4(C)[C@]3(C)CC[C@@]2(C(=O)O)CC1` (some centres unmarked) [12b] here?
A: No substantial irregularity was detected

Q: With `CN(C)[C@@H]1C(O)=C(C(N)=O)C(=O)[C@@]2(O)C(O)=C3C(=O)c4c(O)cccc4[C@@](C)(O)[C@H]3C[C@@H]12` [tetracycline, reference compound] as the compound, how does the inhibition at 25 µg/mL (Bacillus cereus) read?
A: 99%

Q: Which inhibition at 25 µg/mL (Staphylococcus aureus) does the source give for `CN[C@H](CC(C)C)C(=O)N[C@H]1C(=O)N[C@@H](CC(N)=O)C(=O)N[C@H]2C(=O)N[C@H]3C(=O)N[C@H](C(=O)N[C@H](C(=O)O)c4cc(O)cc(O)c4-c4cc3ccc4O)[C@H](O)c3ccc(c(Cl)c3)Oc3cc2cc(c3O[C@@H]2O[C@H](CO)[C@@H](O)[C@H](O)[C@H]2O[C@H]2C[C@](C)(N)[C@H](O)[C@H](C)O2)Oc2ccc(cc2Cl)[C@H]1O` [vancomycin, reference compound] here?
A: 99%

Q: What about the inhibition at 25 µg/mL (Enterococcus faecalis) of the same compound?
A: 99%
